Measurements as given in patent US20240350643A1, “PROTEIN DEGRADATION AGENT” (SUZHOU KINTOR PHARMACEUTICALS, INC., priority 2021, published 2024).

Assays:
HL60 cells = assay: Anti-proliferation ability of compounds on HL60 cells (CTG); type: cell-based, human; settings: Homo sapiens, HL-60, 72 h, 3 days, CellTiter-Glo, read-out: HL60 cells Proliferation inhibitory activity
Summary of the method: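 Proliferation inhibition IC50 derived from CellTiter-Glo luminescence after 3-day compound treatment of HL60 cells plated at 20000 per well, against 0.1% DMSO controls.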

c-Myc protein = target: T1, c-Myc protein (Homo sapiens, UniProt P01106); assay: Ability of compounds to degrade c-Myc protein in HL60 cells (ELISA); type: cell-based; settings: HL-60, 1 μM compound, 24 h, read-out: HL60 cells Protein degradation rate (1 μM)
T1 construct: endogenous in cells; host or cells: HL60 cells
T1 sequence (P01106 whole entry): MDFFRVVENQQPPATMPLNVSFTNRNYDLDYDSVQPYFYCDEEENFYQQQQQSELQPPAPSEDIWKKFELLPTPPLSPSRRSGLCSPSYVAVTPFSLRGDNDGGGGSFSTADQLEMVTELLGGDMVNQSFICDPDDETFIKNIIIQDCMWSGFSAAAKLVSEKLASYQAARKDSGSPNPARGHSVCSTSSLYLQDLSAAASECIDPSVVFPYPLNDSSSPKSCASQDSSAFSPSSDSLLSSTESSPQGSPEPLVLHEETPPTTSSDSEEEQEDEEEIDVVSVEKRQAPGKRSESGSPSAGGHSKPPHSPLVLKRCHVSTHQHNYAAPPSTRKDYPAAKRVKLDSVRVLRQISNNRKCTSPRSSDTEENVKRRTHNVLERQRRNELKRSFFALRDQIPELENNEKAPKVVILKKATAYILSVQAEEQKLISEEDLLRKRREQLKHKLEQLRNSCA

Structure (SMILES) | IC50 (HL60 cells) | inhibition at 1 µM (c-Myc protein)
CC(=O)N(CCc1cccc2ccccc12)Cc1ccc(CNC(=O)c2ccc3c(c2)C(=O)N(C2CCC(=O)NC2=O)C3=O)cc1 (centres unmarked) [A79] | 0.0217 µM | 60 to 90%
O=C(Cc1cccc2ccccc12)NCc1ccc(CNC(=O)c2ccc3c(c2)C(=O)N(C2CCC(=O)NC2=O)C3=O)nc1 (centres unmarked) [A124] | 1.1 ± 0.295 µM | 10 to 30%
O=C(Cc1ccc(Cl)cc1)NCc1ccc(CNC(=O)c2ccc3c(c2)C(=O)N(C2CCC(=O)NC2=O)C3=O)cc1 (centres unmarked) [A59] | 0.173 ± 0.0613 µM | 60 to 90%
O=C1CCC(N2C(=O)c3ccc(C(=O)NCc4ccc(CN(CCc5cccc6ccccc56)C(=O)C5CC5)cc4)cc3C2=O)C(=O)N1 (centres unmarked) [A81] | < 0.003 µM | 60 to 90%

Further compounds by falling IC50 (HL60 cells), results first:

IC50 (HL60 cells) | inhibition at 1 µM (c-Myc protein) | Structure (SMILES)
0.335 ± 0.0831 µM | 30 to 60% | O=C(Cn1c2ccccc2c2ccccc21)NCCCCCCNC(=O)c1ccc2c(c1)C(=O)N(C1CCC(=O)NC1=O)C2=O (centres unmarked) [A1]
0.103 ± 0.0532 µM | 30 to 60% | O=C(Cn1c2ccccc2c2cccnc21)NC[C@H]1CC[C@H](CNC(=O)c2ccc3c(c2)C(=O)N(C2CCC(=O)NC2=O)C3=O)CC1 (some centres unmarked) [A24]
0.012 ± 0.0081 µM | 60 to 90% | CN(CCn1c2ccccc2c2cccnc21)Cc1ccc(C(C)(C)NC(=O)c2ccc3c(c2)C(=O)N(C2CCC(=O)NC2=O)C3=O)cc1 (centres unmarked) [A148]
